Tested on: live leukemic cells of AML patient samples (bone marrow or peripheral blood)
Assay: Ex-vivo effect on AML patient samples, depletion of live leukemic cells by flow cytometry
Type: cell-based, human
Details: plates incubated for 48 hours
Experimental: Patient samples were obtained from a non-interventional and prospective study. The study included samples from adult patients over 18 years of age who were diagnosed with Acute Myeloid Leukemia (AML).
In one embodiment, the method of data acquisition was performed as follows: on day 1 bone marrow (BM) or peripheral blood (PB) patient sample was received. A small part was separated from the rest of the sample for validation, while the majority of the sample was diluted with culture media and plated into 96-well plates previously prepared with the desired compounds and compound combinations, e.g., a compound or compound combination described herein. The number of live leukemic cells seeded in each well was fixed between 8000 and 32000, depending on the percentage of leukemic cells for each sample. […] Antibodies were added to identify leukemic cells using a gating strategy based on FSC/SSC and expression or lack of expression of different surface markers. The monoclonal antibodies selection was performed to optimize the identification of leukemic cell in each sample.
In one embodiment, non-limiting examples of biomarkers such as the biomarkers CD34, CD45, CD117, and HLADR known as “backbone markers” for AML (van Dongen, J. J. and A. Orfao, EuroFlow: Resetting leukemia and lymphoma immunophenotyping. Basis for companion diagnostics and personalized medicine, Leukemia, 2012, 26, 1899-907) were included in the combination.
In one embodiment, antibody combinations such as CD117/CD45, CD34/CD45, and HLADR/CD45 were used. Live leukemic cells were identified by their light scatter properties (FSC^int/hi/SSC^int) in the absence of Annexin-V-FITC staining. FSC/SSC selection was performed to exclude debris. The average percentage of cell viability upon receipt of the sample was 80% and samples were only processed if the viability was greater than 50%.
In one embodiment, sample validation was performed as follows: BM and PB samples were extracted under sterile conditions and received in the laboratory within 24 hours of extraction. Initial analysis evaluated the number of pathological cells and their viability. Different volumes of sample (1 μL, 3 μL, 5 μL and 7 μL) were aliquoted in duplicate into a 96-well plate. To lyse red blood cells, 180 μL of ammonium chloride lysis solution was added to each well (2 g KHCO3, 16.58 g NH4Cl, 0.074 g Na2EDTA.2H2O, H2O to 1 L). Following a 10 min incubation period at 4° C., plate was centrifuged for 5 min at 1200 rpm and the supernatant removed. The lysis step was performed twice. To analyze, 20 μL of a combination of Annexin V-FITC (Immunostep, Salamanca, Spain), binding buffer (BB, 2.4 g HEPES, 8.19 g NaCl, 0.37 g Cl2Ca, H2O to 1 L), and the following monoclonal antibodies (mAb) were added to each well: CD117 (clone 104D2)-PE (Becton Dickinson, San Jose, Calif., US), CD34 (clone 581)-PerCP (BioLegend, San Diego, Calif., US), HLADR (clone L243)-PB (BioLegend) and CD45 (HI30)-PO (Life Technologies, Carlsbad, Calif., US) (van Dongen, J. J., et al., EuroFlow antibody panels for standardized n-dimensional flow cytometric immunophenotyping of normal, reactive and malignant leukocytes, Leukemia, 2012, 26, 1908-75). After 15 min of incubation at room temperature in the dark, a wash step was performed using binding buffer solution. The pellet was resuspended in 30 μL BB for analysis in Vivia's ExviTech© platform. Cell count and viability upon arrival were computed and the optimal volume of sample to use per well was determined.
In one embodiment, the assay was performed according to following method: the whole sample was diluted with RPMI 1640, supplemented with 20% (v/v) FBS (Thermo Scientific, Waltham, Mass., US), 2% HEPES, 1% antibiotic (Zell Shield, Labclinics, Barcelona, Spain) and 1% L-glutamine 200 mM (Lonza, Hopkinton, Mass., US) to a final volume of 60 μL per well. […]

Row | SMILES | EC50 (Homo sapiens, 48 h) [µM] | Emax (Homo sapiens, 48 h) [%] | EC50 [µM] | Emax (%)
1 | CCOC(=O)COP(=O)(N[C@@H](CC(C)C)C(=O)OCC)OC[C@H]1S[C@@H](n2ccc(N)nc2=O)[C@@H](O)[C@@H]1O (single isomer, unassigned) [drawing 51] | 10 to 20 | 0 to 10 | – | –
2 | Nc1ccn([C@@H]2S[C@H](COP(=O)(NCc3ccccc3)OCc3ccc([N+](=O)[O-])o3)[C@@H](O)[C@@H]2O)c(=O)n1 (single isomer, unassigned) [drawing 52] | – | 0 to 10 | 10 to 20 | –
3 | Nc1ccn([C@@H]2S[C@H](COP(=O)(NCc3ccccc3)OCc3ccc([N+](=O)[O-])o3)[C@@H](O)[C@@H]2O)c(=O)n1 (single isomer, unassigned) [drawing 53] | – | – | 1 to 10 | A (A=0-10%)
4 | COC(=O)COP(=O)(N[C@@H](CC(C)C)C(=O)OC)OC[C@H]1S[C@@H](n2ccc(N)nc2=O)[C@@H](O)[C@@H]1O (single isomer, unassigned) [drawing 54] | 1 to 10 | 0 to 10 | – | –
5 | COC(=O)COP(=O)(N[C@@H](CC(C)C)C(=O)OC)OC[C@H]1S[C@@H](n2ccc(N)nc2=O)[C@@H](O)[C@@H]1O (single isomer, unassigned) [drawing 55] | – | – | 1 to 10 | –
6 | CC(C)(C)SSCCOP(=O)(NCc1ccccc1)OC[C@H]1S[C@@H](n2ccc(N)nc2=O)[C@@H](O)[C@@H]1O (single isomer, unassigned) [drawing 57] | ≥ 20 | 10 to 20 | – | –
7 | CC(C)(C)SSCCOP(=O)(NCc1ccccc1)OC[C@H]1S[C@@H](n2ccc(N)nc2=O)[C@@H](O)[C@@H]1O (single isomer, unassigned) [drawing 58] | – | – | ≥ 20 | C (C>20%)
8 | Nc1ccn([C@@H]2S[C@H](COP(=O)(O)NCc3ccccc3)[C@@H](O)[C@@H]2O)c(=O)n1 [drawing 49] | 1 to 10 | 10 to 20 | – | –
